These results are taken from patent US10745433B2, “Compounds for inhibiting cancer and virus” (priority 2016, dated 2020).

For data set [1], the system named is MIAPACA. Nature of the data set: Growth inhibition assay (MTT), MIAPACA. Format: cell-based. As to conditions: Homo sapiens, MIA PaCa-2, 72 hours. The protocol:
(§1) The compounds of the invention were subjected to growth inhibition assay. Cells were seeded in 96-well plastic plates and exposed to the compounds of the invention for 72 hours. Cell viability was assessed using the 3-(4,5-dimethylthiazol-2-yl)-2,5-diphenyltetrazolium bromide assay.

Data set [2] deals with DU145. Nature of the data set: Growth inhibition assay (MTT), DU145. The conditions noted are these: Homo sapiens. Format: cell-based. The protocol:
as §1

Data set [3] deals with Panc-1. Nature of the data set: Growth inhibition assay (MTT), Panc-1. Type of data set: cell-based. The conditions noted are these: Homo sapiens, Panc-1, Pancreatic cancer, 72 hours. Here is the method:
as §1

In data set [4] the test system is N87. Nature of the data set: Growth inhibition assay (MTT), N87. Format: cell-based. The protocol: as §1
For data set [5], the system named is PC3. Nature of the data set: Growth inhibition assay (MTT), PC3. Type of data set: cell-based. The conditions noted are these: Homo sapiens. Here is the method:
as §1

Data set [6] deals with LNCap. Nature of the data set: Growth inhibition assay (MTT), LNCap. Format: cell-based. As to conditions: Homo sapiens. Here is the method:
as §1

The test system of data set [7] is MCF-7. Nature of the data set: Growth inhibition assay (MTT), MCF-7. Format: cell-based. The conditions noted are these: Homo sapiens. Here is the method:
as §1

Data set [8] deals with HCT116. Nature of the data set: Growth inhibition assay (MTT), HCT116. Format: cell-based. The conditions noted are these: Homo sapiens. The protocol: as §1
The subject of data set [9] is HT29. Nature of the data set: Growth inhibition assay (MTT), HT29. Type of data set: cell-based. As to conditions: Homo sapiens. The protocol:
as §1

Data set [10] relates to MKN45. Nature of the data set: Growth inhibition assay (MTT), MKN45. Type of data set: cell-based. As to conditions: Homo sapiens. The protocol:
as §1

Data set [11] in a line: Metabolic stability in rat liver microsomes. Format: in vitro ADME. The conditions noted are these: FIG. 3. A general note: Microsomes from liver hold many membrane-bound enzymes, among them those of drug oxidation.
Data set [12] can be described thus: Metabolic stability in dog liver microsomes. As to conditions: FIG. 3. Format: in vitro ADME.
In data set [13] the test system is human MDA-MB-231 breast adenocarcinoma. Nature of the data set: MDA-MB-231 xenograft animal model. The conditions noted are these: oral, female nude mice; for body weight: FIG. 1(B). Type of data set: in vivo. The text has this: Anti-cancer Activity Evaluation of the Compounds of the Invention (MPT0L167 and MPT0L179) Against Human MDA-MB-231 Breast Cancer in MDA-MB-231 Xenograft Animal Model and Human Colorectal Cancer HCT116 Xenograft Model […] This study utilized five groups of mice (n=7-8) bearing established human MDA-MB-231 breast adenocarcinoma with mean volumes of ˜250 mm^3.

Data set [14] relates to Zika virus (PRVABC59 strain). Nature of the data set: Zika animals study. Type of data set: in vivo. Here is the method: The Zika sensitive female mice: ROSA, STAT1^−/− strain was used. MPT0L167 was used to pre-treat the mice for one day. 4*10^7 cells (U-87 MG human glioblastoma cell with infection with Zika virus (PRVABC59 strain)) were injection in mice. After infection, MPT0L167 was administered with 100 mg/kg to the mice by po,qd. The virus detection in serum at day 3. The concentration of virus in serum was detected by Viralplaque assays.

The test system of data set [15] is human HCT116 colorectal cancer. Nature of the data set: Human colorectal cancer HCT116 xenograft model. Type of data set: in vivo. The conditions noted are these: oral, female nude mice; for body weight: FIG. 2(B). The source says: Anti-cancer Activity Evaluation of the Compounds of the Invention (MPT0L167 and MPT0L179) Against Human MDA-MB-231 Breast Cancer in MDA-MB-231 Xenograft Animal Model and Human Colorectal Cancer HCT116 Xenograft Model […] This study utilized five groups of mice (n=7-8) bearing established human HCT116 colorectal cancer with mean volumes of ˜200 mm^3.

Data set [16] is described as follows: Pharmacokinetic study (PK), i.v. in rats. Type of data set: in vivo. As to conditions: 2 mg/kg i.v. The protocol:
2 mg/kg of niclosamide (MPT0L166) and MPT0L167, MPT0L180 and MPT0L196 were each independently given to five rats by i.v. The blood samples were taken from the rats after 0.03 hour, 0.08 hour, 0.25 hour, 0.5 hour, 1 hour, 2 hours, 4 hours, 6 hour, 8 hours and 24 hours. LC-MS/MS was used to detect the concentration of MPT0L167 in blood.

The nature of data set [17]: Metabolic stability in human liver microsomes. Format: in vitro ADME. As to conditions: FIG. 3.
Where [18] appears, read: DU-145, DU145, Prostate cancer, 72 hours, MTT, read-out: IC50.
[19] abbreviates: N87, Gastric cancer, 72 hours, MTT, read-out: IC50.
[20] abbreviates: PC-3, PC3, Prostate cancer, 72 hours, MTT, read-out: IC50.
Where [21] appears, read: LNCap, Prostate cancer, 72 hours, MTT, read-out: IC50.
The mark [22] stands for this setting: MCF7, MCF-7, Breast cancer, 72 hours, MTT, read-out: IC50.
Setting [23] is: HCT-116, HCT116, Colon cancer, 72 hours, MTT, read-out: IC50.
[24] abbreviates: HT-29, HT29, Colon cancer, 72 hours, MTT, read-out: IC50.
Where [25] appears, read: MKN-45, MKN45, Gastric cancer, 72 hours, MTT, read-out: IC50.

Structures are written as SMILES. Entries after “also recorded” stand apart in the source; their conditions may differ. Where two headings read alike, the source gives them in different places.

In turn, `O=C(Nc1ccc([N+](=O)[O-])c(C(F)(F)F)c1)c1cc(Cl)ccc1O` gave a melting point of 172.4 to 174 °C.
On to `O=C(Nc1ccc([N+](=O)[O-])cc1Cl)c1cc(Cl)ccc1O` [#166, niclosamide, reference compound], for which the IC50 in data set [1] was 1.17 µM; in [2] (setting [18]), more than 10 µM; in [3], 0.43 µM; in data set [4] (setting [19]) it was 0.14 µM; in data set [5] (setting [20]), 1.04 µM; in [6] (setting [21]), 0.97 µM. For the same molecule, the IC50 in data set [7] (setting [22]) was 3.69 µM; in [8] (setting [23]), 5.64 µM; in data set [9] (setting [24]), 31.1 µM; in data set [10] (setting [25]), more than 25 µM.
Turning to `O=C(Nc1ccc([N+](=O)[O-])cc1Cl)c1cc(Cl)ccc1OC1OC(CO)C(O)C(O)C1O` (centres unmarked) [MPT0L167, 5-Chloro-N-(2-chloro-4-nitro-phenyl)-2-(3,4,5-trihydroxy-6-hydroxymethyl-tetrahydro-pyran-2-yloxy)-benzamide], the melting point lay within 212.6 to 213.2 °C. Besides, in [11], the “metabolic stability compared with MPT0L166” value is recorded as “more stable than MPT0L166”. Also, the IC50 in [2] (setting [18]) is more than 25 µM. Moreover, the “metabolic stability compared with MPT0L166” value in [12] is on record as “more stable than MPT0L166”. For the same molecule, the tumor volume entry in data set [13] (FIG. 1(A)) was “significantly reduces tumor volume”. The body weight entry in data set [13] is “does not significantly reduce body weight”. For the same molecule, the body weight entry in data set [13] (listed as MPLOL167) was “did not exhibit significant change”. Besides, in [4] (setting [19]), the IC50 is more than 25 µM. Moreover, the IC50 in data set [5] (setting [20]) was more than 25 µM. For the same molecule, in [6] (setting [21]), the IC50 was more than 25 µM. Moreover, the IC50 in [7] (setting [22]) was more than 25 µM. Also, the IC50 in data set [8] (setting [23]) is more than 50 µM. Further, in data set [14] (female ROSA, STAT1−/− mice, 100 mg/kg po,qd, serum at day 3, FIG. 4(A)), the “concentration of virus in serum (Viralplaque assays)” value was “inhibition of Zika virus infection; also recorded: significantly inhibits Zika virua growth”. The body weight entry in [14] (mouse, in vivo, po, 100 mg/kg) is given as “does not significant reduce body weight; also recorded: not significantly changed”. Besides, the IC50 in [9] (setting [24]) was more than 50 µM. Moreover, the tumor volume entry in data set [15] (FIG. 2(A)) is “significantly reduces tumor volume”. In data set [15], the body weight result is recorded as “does not significantly reduce body weight”. In [15] (listed as MPLOL167), the body weight result was “did not exhibit significant change”. Also, the “half-life in vivo compared with niclosamide (MPT0L166)” value in data set [16] is “longer half-life than MPT0L166”. Besides, the “AUC % Extrap obs” value in data set [16] (mean) was 1.15%. In [16] (rat, blood, iv, mean), this molecule showed an AUC(0-inf) of 587 ng·h/mL, an AUC(0-t) of 580 ng·h/mL, a Cmax of 3880 ng/mL and an MRT inf of 1.4 h. Besides, in [16] (rat, blood, iv, mean), the Tmax is 1.8 min and the half-life was 7.38 h. Moreover, the clearance in data set [16] (rat, blood, iv, mean, read-out: CL obs (converted)) is 59.1 mL/min/kg. Also, the Vd in [16] (rat, blood, iv, mean, read-out: VZ obs) was 37.3 L/kg. In addition, the IC50 in [10] (setting [25]) was more than 25 µM. In addition, the “metabolic stability compared with MPT0L166” value in data set [17] was “more stable than MPT0L166”.
`CC(=O)OCOc1ccc(Cl)cc1C(=O)Nc1ccc([N+](=O)[O-])cc1Cl` [MPT0L180, Acetic acid 4-chloro-2-(2-chloro-4-nitro-phenylcarbamoyl)-phenoxymethyl ester] gave a melting point of 195.5 to 197.2 °C. In addition, the IC50 in data set [2] (setting [18]) is more than 25 µM. For the same molecule, the IC50 in [4] (setting [19]) was more than 25 µM. For the same molecule, in [5] (setting [20]), the IC50 was more than 25 µM. Besides, in data set [6] (setting [21]), the IC50 came out at 2.44 µM. In addition, in data set [7] (setting [22]), the half-inhibitory concentration (IC50) is more than 25 µM. In data set [8] (setting [23]), the IC50 was more than 50 µM. Also, the IC50 in data set [9] (setting [24]) is more than 50 µM. In addition, the IC50 in data set [10] (setting [25]) was more than 25 µM.
With `O=C(Nc1ccc([N+](=O)[O-])cc1Cl)c1cc(Cl)ccc1OC(=O)N1CCC(N2CCCCC2)CC1` [MPT0L196, [1,4′]Bipiperidinyl-1′-carboxylic acid 4-chloro-2-(2-chloro-4-nitro-phenylcarbamoyl)-phenyl ester], the melting point was in the range of 216.3 to 217.9 °C. The molecule also showed an IC50 in data set [2] (DU-145, 72 h) of more than 25 µM. This molecule also showed an IC50 in data set [4] (72 h) of more than 25 µM. Also, in [5] (PC-3, 72 h), the IC50 was more than 25 µM. Moreover, the IC50 in data set [6] (LNCaP, 72 h) was more than 25 µM. In data set [7] (MCF7, 72 h), this molecule displayed an IC50 of more than 25 µM. Moreover, the IC50 in data set [8] (HCT-116, 72 h) is more than 50 µM. Further, in data set [9] (HT-29, 72 h), the IC50 was more than 50 µM. Further, the IC50 in [10] (MKN-45, 72 h) is more than 25 µM.

As usually defined, the melting point is the temperature of the solid-liquid transition. One may read the IC50 as the concentration at which inhibition is half-maximal. Usually AUC(0-inf) stands for total exposure, with the tail of the curve extrapolated. In general, AUC(0-t) refers to exposure summed from dosing to a finite time, without extrapolation to infinity. A low value points to low exposure. What is called Cmax is the peak of the concentration-time curve. For orientation: MRT inf means the average time that molecules of a dose stay in the body. One may read the Tmax as the time from dosing to the highest level. What is called half-life is the time needed for the level to fall by half in the phase considered.
